Experimental findings from publication PMC9582160, “Inhibition of MRGPRX2 but not FcεRI or MrgprB2-mediated mast cell degranulation by a small molecule inverse receptor agonist” (Frontiers in Immunology, 2022) are described below.

In this assay the target is T1, MrgprB2 (Mus musculus, UniProt Q3KNA1).
T1 construct: endogenous receptor in mouse peritoneal mast cells
T1 sequence (Q3KNA1 1-338): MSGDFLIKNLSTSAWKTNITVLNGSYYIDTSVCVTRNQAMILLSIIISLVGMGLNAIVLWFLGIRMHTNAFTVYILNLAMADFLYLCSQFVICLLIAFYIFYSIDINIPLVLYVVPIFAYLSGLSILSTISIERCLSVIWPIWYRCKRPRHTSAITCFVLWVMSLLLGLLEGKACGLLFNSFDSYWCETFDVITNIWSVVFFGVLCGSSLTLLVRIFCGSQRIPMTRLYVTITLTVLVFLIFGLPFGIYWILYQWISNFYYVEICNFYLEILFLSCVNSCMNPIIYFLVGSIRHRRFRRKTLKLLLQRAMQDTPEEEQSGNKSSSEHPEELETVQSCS
The assay is described as follows: agonist: β-hexosaminidase release in WT peritoneal mast cells at […], absent in MrgprB2-/- cells. It counts as cell-based.

Turning to `C=CC[N+]1([C@H]2C[C@H]3[C@@H]4CC[C@H]5C[C@H](O)[C@@H](N6CCOCC6)C[C@]5(C)[C@H]4CC[C@]3(C)[C@H]2OC(C)=O)CCCC1` [rocuronium], the “agonist: β-hexosaminidase release in WT peritoneal mast cells at 20 μg/ml, absen” value was “mediated via MrgprB2 by demonstrating that PMCs cultured from MrgprB2^−/− mice do not respond to these agonists”.
